Data taken from ChEMBL document CHEMBL5291721, “A preclinical secondary pharmacology resource illuminates target-adverse drug reaction associations of marketed drugs” (Nat Commun, 2023).

Columns and labels:
[1] = molecular target: T1, Alpha-1A adrenergic receptor (Homo sapiens, UniProt P35348); assay type: functional, cell-based
T1 sequence (P35348 whole entry): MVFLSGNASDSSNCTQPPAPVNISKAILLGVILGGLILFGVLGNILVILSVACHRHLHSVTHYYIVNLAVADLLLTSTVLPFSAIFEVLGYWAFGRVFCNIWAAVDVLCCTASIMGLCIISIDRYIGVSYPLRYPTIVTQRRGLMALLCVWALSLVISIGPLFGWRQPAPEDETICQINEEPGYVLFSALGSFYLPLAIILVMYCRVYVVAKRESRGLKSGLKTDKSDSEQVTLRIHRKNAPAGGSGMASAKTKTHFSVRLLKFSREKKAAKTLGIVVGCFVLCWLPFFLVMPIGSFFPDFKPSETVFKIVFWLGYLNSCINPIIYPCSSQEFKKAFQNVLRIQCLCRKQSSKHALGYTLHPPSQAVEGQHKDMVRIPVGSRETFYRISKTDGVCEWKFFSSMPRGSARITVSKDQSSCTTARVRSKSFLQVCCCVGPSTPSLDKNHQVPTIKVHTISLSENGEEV

[2] = molecular target: T1, Alpha-1A adrenergic receptor
[3] = molecular target: T2, Beta-2 adrenergic receptor (Homo sapiens, UniProt P07550); assay type: functional, cell-based
[4] = molecular target: T2, Beta-2 adrenergic receptor
[5] = molecular target: Voltage-dependent L-type calcium channel subunit alpha-1C (Rattus norvegicus, UniProt P22002); assay type: functional
[6] = molecular target: Neuronal acetylcholine receptor subunit alpha-4 (Homo sapiens, UniProt P43681)
Cannabinoid receptor 1 [7] = molecular target: T3, Cannabinoid receptor 1 (Homo sapiens, UniProt P21554); assay type: functional, cell-based
Cannabinoid receptor 1 [8] = molecular target: T3, Cannabinoid receptor 1
D(1A) dopamine receptor [9] = molecular target: T4, D(1A) dopamine receptor (Homo sapiens, UniProt P21728); assay type: functional, cell-based
D(1A) dopamine receptor [10] = molecular target: T4, D(1A) dopamine receptor; assay type: functional, cell-based; remark: listed apart in the source
[11] = molecular target: Gamma-aminobutyric acid receptor subunit alpha-1/alpha-2/beta-2/gamma-2 (Homo sapiens, UniProt P14867+P18507+P47869+P47870); assay type: functional, cell-based
[12] = molecular target: T5, Gamma-aminobutyric acid receptor subunit alpha-1 (Rattus norvegicus, UniProt P62813)
[13] = molecular target: T5, Gamma-aminobutyric acid receptor subunit alpha-1; assay type: functional
[14] = molecular target: Glutamate receptor ionotropic, NMDA 1 (Rattus norvegicus, UniProt P35439)
Histamine H2 receptor = Histamine H2 receptor (Homo sapiens, UniProt P25021); assay type: functional, cell-based
[15] = molecular target: T6, 5-hydroxytryptamine receptor 1A (Homo sapiens, UniProt P08908); assay type: functional, cell-based
T6 sequence (P08908 whole entry): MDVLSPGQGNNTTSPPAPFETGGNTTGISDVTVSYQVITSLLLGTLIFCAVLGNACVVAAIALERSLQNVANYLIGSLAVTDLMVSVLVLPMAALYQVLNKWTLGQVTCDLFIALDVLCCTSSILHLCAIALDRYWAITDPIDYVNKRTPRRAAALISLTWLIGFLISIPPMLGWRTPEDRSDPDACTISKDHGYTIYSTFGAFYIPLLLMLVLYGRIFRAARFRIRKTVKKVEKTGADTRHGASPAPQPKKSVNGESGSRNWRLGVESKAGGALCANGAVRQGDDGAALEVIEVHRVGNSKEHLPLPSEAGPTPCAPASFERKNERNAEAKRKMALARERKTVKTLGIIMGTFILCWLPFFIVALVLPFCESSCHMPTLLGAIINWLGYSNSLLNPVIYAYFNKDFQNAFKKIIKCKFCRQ

[16] = molecular target: T6, 5-hydroxytryptamine receptor 1A; assay type: functional, cell-based; remark: listed apart in the source
[17] = molecular target: T7, 5-hydroxytryptamine receptor 2B (Homo sapiens, UniProt P41595); assay type: functional, cell-based
[18] = molecular target: T7, 5-hydroxytryptamine receptor 2B; assay type: functional, cell-based; remark: listed apart in the source
[19] = molecular target: T7, 5-hydroxytryptamine receptor 2B
[20] = molecular target: T8, 5-hydroxytryptamine receptor 2C (Homo sapiens, UniProt P28335)
T8 sequence (P28335 whole entry): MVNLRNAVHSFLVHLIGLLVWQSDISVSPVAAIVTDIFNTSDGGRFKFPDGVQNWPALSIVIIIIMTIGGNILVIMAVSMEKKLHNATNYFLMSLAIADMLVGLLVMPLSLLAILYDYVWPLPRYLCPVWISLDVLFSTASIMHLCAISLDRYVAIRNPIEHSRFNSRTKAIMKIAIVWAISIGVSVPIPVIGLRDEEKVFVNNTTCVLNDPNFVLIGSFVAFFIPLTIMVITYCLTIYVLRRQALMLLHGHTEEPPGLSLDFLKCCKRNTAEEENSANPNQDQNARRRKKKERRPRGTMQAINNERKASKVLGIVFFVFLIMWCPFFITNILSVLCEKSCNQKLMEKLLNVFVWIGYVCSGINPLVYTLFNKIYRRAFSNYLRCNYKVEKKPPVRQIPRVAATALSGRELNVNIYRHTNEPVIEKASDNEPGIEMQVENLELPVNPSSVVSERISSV

[21] = molecular target: Delta-type opioid receptor (Homo sapiens, UniProt P41143)
[22] = molecular target: Kappa-type opioid receptor (Homo sapiens, UniProt P41145)
Mu-type opioid receptor [23] = molecular target: T9, Mu-type opioid receptor (Homo sapiens, UniProt P35372); assay: biochemical; assay type: functional
Mu-type opioid receptor [24] = molecular target: T9, Mu-type opioid receptor
[25] = molecular target: T10, Amine oxidase [flavin-containing] A (Homo sapiens, UniProt P21397); assay type: functional
T10 sequence (P21397 whole entry): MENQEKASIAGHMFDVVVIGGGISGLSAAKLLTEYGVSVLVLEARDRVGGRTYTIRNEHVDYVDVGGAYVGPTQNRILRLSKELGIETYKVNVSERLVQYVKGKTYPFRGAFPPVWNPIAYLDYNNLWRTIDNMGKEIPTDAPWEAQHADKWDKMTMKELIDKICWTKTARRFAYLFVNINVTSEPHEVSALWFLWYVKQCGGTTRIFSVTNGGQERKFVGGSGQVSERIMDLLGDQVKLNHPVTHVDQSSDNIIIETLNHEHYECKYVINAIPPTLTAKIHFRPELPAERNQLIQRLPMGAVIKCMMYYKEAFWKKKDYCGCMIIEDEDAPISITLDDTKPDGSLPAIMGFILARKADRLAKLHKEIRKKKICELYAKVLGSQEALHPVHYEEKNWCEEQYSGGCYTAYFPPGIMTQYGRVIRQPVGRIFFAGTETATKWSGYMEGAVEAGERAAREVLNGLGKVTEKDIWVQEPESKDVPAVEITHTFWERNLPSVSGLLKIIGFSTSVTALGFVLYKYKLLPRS

D(3) dopamine receptor = D(3) dopamine receptor (Homo sapiens, UniProt P35462)
[26] = molecular target: T1, Alpha-1A adrenergic receptor; assay type: functional, cell-based; remark: listed apart in the source
Histamine H3 receptor = Histamine H3 receptor (Homo sapiens, UniProt Q9Y5N1)
Further: assay procedure not described here.

T7 sequence (P41595 whole entry): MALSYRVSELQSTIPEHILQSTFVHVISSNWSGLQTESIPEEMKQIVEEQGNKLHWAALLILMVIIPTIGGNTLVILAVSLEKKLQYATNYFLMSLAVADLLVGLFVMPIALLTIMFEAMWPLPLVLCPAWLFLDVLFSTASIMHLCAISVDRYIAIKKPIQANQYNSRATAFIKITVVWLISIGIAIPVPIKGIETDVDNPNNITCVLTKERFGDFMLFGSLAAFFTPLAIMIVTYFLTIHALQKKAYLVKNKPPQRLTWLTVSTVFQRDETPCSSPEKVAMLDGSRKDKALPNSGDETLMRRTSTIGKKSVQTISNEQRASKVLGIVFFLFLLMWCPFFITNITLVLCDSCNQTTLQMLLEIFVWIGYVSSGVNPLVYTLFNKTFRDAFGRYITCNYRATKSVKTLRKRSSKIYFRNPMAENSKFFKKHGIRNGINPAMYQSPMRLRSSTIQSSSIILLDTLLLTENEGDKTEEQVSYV
T3 sequence (P21554 whole entry): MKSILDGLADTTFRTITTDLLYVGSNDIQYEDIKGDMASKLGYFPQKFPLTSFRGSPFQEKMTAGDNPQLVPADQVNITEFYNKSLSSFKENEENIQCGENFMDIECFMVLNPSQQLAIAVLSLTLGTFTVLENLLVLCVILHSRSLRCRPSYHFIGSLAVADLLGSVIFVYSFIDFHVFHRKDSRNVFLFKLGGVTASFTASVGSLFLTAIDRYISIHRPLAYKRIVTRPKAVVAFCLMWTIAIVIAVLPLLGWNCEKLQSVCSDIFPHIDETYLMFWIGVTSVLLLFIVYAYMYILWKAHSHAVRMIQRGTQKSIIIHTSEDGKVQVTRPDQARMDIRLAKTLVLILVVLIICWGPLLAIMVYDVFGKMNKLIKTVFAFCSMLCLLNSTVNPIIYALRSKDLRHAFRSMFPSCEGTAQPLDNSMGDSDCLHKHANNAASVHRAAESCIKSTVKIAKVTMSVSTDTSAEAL
T9 sequence (P35372 whole entry): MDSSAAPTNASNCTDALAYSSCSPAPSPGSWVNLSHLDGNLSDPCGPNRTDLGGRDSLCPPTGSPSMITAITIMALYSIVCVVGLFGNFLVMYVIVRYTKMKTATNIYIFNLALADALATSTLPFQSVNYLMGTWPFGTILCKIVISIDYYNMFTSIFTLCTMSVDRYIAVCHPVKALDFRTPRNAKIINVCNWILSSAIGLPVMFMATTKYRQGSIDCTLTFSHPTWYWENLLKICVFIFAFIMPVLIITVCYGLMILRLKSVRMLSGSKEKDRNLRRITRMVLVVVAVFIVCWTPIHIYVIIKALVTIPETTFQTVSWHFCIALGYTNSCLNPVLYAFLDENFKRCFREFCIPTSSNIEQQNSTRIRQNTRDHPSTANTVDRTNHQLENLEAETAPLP
T4 sequence (P21728 whole entry): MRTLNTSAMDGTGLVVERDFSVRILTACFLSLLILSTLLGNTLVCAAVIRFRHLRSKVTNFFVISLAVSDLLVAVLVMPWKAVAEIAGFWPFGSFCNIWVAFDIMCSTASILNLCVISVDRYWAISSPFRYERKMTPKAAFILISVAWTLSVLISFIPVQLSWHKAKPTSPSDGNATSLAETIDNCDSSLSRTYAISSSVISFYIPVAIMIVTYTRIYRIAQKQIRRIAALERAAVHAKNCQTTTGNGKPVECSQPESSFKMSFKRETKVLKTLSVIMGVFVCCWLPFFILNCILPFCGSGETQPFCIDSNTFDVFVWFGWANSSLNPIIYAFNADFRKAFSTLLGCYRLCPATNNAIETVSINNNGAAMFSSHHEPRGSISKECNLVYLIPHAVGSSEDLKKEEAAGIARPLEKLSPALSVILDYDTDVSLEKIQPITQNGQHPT
T5 sequence (P62813 whole entry): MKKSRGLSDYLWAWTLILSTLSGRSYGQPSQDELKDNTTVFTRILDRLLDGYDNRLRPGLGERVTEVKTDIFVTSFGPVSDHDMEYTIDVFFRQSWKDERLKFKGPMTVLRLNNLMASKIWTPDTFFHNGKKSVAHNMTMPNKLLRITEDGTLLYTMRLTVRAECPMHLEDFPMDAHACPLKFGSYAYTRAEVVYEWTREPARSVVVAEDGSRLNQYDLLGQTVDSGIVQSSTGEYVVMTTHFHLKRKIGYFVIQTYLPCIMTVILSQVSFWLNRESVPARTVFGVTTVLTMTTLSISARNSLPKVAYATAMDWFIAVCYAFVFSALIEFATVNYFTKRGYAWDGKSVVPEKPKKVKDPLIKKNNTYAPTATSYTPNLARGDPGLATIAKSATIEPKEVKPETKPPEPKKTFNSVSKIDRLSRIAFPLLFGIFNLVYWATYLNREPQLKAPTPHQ
T2 sequence (P07550 whole entry): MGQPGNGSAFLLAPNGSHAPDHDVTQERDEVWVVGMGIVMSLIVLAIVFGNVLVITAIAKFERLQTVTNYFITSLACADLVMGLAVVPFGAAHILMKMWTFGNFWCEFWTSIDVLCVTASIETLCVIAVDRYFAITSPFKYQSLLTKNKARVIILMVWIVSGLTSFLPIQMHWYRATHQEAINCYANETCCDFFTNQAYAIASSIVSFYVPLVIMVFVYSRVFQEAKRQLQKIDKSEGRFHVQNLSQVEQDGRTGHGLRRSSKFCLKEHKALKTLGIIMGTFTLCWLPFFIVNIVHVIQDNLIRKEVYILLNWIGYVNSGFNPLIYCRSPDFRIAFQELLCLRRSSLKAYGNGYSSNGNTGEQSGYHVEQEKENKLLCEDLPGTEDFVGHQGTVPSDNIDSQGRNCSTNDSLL
Sequence of Gamma-aminobutyric acid receptor subunit alpha-1/alpha-2/beta-2/gamma-2 (P14867 whole entry): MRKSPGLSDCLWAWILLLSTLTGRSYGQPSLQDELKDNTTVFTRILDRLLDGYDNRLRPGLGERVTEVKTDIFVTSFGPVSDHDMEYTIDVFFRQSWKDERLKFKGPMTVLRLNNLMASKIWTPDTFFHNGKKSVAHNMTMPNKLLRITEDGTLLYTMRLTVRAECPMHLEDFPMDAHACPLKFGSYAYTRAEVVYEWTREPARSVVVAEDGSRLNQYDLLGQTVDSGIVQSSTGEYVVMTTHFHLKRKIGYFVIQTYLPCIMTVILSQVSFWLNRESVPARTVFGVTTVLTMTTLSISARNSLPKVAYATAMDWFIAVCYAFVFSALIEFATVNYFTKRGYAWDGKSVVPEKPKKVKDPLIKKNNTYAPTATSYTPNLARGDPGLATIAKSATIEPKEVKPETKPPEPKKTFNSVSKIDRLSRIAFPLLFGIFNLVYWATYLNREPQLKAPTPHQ
Sequence of Gamma-aminobutyric acid receptor subunit alpha-1/alpha-2/beta-2/gamma-2 (P47870 whole entry): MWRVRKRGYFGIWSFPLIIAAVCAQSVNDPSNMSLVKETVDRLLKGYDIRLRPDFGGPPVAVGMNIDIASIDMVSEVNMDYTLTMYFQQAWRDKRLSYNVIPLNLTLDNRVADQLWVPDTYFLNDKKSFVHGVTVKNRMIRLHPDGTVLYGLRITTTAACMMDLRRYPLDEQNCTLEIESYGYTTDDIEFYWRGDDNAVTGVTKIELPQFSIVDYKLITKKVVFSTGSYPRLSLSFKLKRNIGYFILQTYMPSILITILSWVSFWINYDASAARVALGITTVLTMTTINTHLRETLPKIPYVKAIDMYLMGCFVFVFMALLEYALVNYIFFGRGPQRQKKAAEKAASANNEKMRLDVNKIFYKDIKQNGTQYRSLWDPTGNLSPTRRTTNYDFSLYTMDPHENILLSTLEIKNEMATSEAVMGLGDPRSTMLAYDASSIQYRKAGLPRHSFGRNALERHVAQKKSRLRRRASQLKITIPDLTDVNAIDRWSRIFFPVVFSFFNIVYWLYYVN
Sequence of Gamma-aminobutyric acid receptor subunit alpha-1/alpha-2/beta-2/gamma-2 (P18507 whole entry): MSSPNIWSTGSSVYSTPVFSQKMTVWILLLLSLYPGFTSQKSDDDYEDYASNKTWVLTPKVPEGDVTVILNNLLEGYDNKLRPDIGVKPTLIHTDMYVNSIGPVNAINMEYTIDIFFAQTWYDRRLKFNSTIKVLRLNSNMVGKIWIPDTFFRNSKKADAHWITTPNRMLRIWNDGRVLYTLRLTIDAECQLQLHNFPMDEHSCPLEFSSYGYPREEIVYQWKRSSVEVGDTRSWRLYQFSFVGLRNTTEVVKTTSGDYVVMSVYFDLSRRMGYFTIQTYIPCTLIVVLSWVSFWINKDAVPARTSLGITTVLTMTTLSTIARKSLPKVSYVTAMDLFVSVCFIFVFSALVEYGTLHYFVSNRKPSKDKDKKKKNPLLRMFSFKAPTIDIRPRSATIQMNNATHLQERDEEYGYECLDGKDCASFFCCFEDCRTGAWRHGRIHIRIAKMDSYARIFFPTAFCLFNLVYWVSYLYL
Sequence of Gamma-aminobutyric acid receptor subunit alpha-1/alpha-2/beta-2/gamma-2 (P47869 whole entry): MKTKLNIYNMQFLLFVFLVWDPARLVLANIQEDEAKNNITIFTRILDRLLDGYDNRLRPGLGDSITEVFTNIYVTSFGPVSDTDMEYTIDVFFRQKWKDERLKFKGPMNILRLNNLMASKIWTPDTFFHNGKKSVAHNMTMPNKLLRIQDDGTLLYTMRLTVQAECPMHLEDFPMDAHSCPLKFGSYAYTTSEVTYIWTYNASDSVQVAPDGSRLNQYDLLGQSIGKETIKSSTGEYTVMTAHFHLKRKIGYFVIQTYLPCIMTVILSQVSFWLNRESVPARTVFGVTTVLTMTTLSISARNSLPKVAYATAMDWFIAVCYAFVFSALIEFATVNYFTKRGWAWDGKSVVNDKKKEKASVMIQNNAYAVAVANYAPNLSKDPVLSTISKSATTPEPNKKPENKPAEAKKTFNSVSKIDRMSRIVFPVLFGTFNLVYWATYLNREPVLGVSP
Sequence of Histamine H2 receptor (P25021 whole entry): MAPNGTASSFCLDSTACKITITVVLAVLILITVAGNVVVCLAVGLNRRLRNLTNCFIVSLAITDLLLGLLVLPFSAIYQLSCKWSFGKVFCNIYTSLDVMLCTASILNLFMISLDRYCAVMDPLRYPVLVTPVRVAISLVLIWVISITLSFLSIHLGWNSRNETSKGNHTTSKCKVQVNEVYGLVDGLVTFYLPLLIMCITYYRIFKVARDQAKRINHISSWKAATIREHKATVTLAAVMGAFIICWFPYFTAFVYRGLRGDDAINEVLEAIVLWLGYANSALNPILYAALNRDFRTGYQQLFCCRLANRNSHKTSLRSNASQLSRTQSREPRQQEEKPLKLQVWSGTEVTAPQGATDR

AC50 [1]: > 30 µM
AC50 [2]: 0.078 µM
AC50 [3]: > 30 µM
AC50 [4]: > 30 µM
AC50 [5]: > 10 µM
AC50 [6]: > 30 µM
AC50 (Cannabinoid receptor 1 [7]): > 30 µM
AC50 (Cannabinoid receptor 1 [8]): > 10 µM
AC50 (D(1A) dopamine receptor [9]): > 30 µM
AC50 (D(1A) dopamine receptor [10]): 21 µM
AC50 [11]: > 30 µM
AC50 [12]: > 10 µM
AC50 [13]: > 30 µM
AC50 [14]: > 10 µM
AC50 (Histamine H2 receptor): > 30 µM
AC50 [15]: > 30 µM
AC50 [16]: > 30 µM
AC50 [17]: > 30 µM
AC50 [18]: 2.6 µM
AC50 [19]: 0.137 µM
AC50 [20]: 12.4 µM
AC50 [21]: 11 µM
AC50 [22]: 0.993 µM
AC50 (Mu-type opioid receptor [23]): 5.3 µM
AC50 (Mu-type opioid receptor [24]): 6.26 µM
AC50 [25]: > 30 µM
AC50 (D(3) dopamine receptor): 2.83 µM
AC50 [26]: 0.96 µM
AC50 (Histamine H3 receptor): > 30 µM
SMILES: CN1[C@@H]2CC[C@H]1C[C@@H](OC(c1ccccc1)c1ccccc1)C2 [BENZTROPINE]
